Results published in publication PMC12586182 (Frontiers in Oncology, 2025).

What was measured:
Assay in all cases: Kinase panel profiling at 1 µmol/L (mobility shift assay, Carna)
LCK = target: T1, LCK (Homo sapiens, UniProt P06239); format: biochemical; conditions: 1 µmol/L of BTK inhibitor
T1 construct: purchased Carna Biosciences

BRK = BRK (Homo sapiens, UniProt Q13882); conditions: for Percentage inhibition of kinase enzyme activity: BRK, 1 µmol/L of BTK inhibitor
PKD2 = target: T2, PKD2 (Homo sapiens, UniProt Q9BZL6); format: biochemical; conditions: 1 µmol/L of BTK inhibitor
T2 construct: purchased Carna Biosciences
T2 sequence (Q9BZL6 1-878): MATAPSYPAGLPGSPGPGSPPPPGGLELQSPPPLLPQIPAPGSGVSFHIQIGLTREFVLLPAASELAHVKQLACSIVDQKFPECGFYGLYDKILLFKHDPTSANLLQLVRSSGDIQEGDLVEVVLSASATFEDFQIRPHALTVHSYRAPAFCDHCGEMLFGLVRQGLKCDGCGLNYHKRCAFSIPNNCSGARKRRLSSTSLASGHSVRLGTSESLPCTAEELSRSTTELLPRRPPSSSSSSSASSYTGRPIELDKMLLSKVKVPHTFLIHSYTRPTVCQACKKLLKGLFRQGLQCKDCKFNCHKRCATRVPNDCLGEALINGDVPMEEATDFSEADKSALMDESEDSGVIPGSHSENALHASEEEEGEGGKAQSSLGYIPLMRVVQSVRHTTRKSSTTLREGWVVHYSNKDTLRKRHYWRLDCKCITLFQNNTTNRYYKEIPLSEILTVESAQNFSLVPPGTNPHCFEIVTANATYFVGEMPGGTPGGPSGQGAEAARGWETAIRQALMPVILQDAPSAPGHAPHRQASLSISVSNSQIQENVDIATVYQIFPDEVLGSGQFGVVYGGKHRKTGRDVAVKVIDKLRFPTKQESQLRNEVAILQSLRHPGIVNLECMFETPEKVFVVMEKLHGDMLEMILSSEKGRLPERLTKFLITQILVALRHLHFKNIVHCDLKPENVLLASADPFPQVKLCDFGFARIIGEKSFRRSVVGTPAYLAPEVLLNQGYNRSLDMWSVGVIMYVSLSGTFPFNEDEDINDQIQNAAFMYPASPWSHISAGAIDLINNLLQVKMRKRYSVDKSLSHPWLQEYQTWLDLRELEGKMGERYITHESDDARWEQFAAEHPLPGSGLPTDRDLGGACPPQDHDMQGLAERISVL

BRSK2 = target: T3, BRSK2 (Homo sapiens, UniProt Q8IWQ3); format: biochemical; conditions: 1 µmol/L of BTK inhibitor
T3 construct: purchased Carna Biosciences
T3 sequence (Q8IWQ3 1-736): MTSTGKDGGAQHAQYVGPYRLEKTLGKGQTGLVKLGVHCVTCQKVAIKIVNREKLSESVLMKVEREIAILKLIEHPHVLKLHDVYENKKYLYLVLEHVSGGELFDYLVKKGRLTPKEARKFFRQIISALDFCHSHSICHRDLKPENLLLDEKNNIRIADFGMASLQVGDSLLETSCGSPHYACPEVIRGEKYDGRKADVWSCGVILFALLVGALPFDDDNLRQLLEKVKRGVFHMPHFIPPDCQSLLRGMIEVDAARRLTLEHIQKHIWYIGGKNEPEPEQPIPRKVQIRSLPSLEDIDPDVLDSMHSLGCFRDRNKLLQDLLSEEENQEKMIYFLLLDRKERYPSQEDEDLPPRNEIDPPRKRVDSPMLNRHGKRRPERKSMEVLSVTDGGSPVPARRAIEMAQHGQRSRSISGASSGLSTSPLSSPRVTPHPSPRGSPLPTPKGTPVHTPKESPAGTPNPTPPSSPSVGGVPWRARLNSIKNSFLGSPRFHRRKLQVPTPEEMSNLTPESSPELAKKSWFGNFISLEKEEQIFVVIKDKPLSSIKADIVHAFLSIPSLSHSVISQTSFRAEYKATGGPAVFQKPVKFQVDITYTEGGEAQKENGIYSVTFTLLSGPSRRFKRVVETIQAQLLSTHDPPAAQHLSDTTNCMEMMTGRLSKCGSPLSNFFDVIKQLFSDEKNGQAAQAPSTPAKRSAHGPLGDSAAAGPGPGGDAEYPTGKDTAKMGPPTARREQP

HIPK4 = target: T4, HIPK4 (Homo sapiens, UniProt Q8NE63); format: biochemical; conditions: 1 µmol/L of BTK inhibitor
T4 construct: purchased Carna Biosciences
T4 sequence (Q8NE63 1-616): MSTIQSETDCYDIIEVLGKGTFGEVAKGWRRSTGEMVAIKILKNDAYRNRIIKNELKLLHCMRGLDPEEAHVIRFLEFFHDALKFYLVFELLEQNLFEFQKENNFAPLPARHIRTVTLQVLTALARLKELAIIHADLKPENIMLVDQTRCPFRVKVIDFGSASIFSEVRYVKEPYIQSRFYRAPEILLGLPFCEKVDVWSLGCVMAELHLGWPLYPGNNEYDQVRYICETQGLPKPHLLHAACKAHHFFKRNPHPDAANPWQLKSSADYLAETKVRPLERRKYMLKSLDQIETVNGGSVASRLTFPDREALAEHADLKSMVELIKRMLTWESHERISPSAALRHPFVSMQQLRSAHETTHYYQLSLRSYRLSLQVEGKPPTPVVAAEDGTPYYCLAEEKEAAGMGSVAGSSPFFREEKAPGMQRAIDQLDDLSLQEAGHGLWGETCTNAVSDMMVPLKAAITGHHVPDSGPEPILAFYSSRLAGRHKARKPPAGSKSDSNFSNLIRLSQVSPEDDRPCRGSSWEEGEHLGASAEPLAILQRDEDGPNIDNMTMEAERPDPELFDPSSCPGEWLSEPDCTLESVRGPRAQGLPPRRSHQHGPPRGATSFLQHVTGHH

PKCδ = target: T5, PKCδ (Homo sapiens, UniProt Q05655); format: biochemical; conditions: 1 µmol/L of BTK inhibitor
T5 construct: purchased Carna Biosciences
T5 sequence (Q05655 whole entry): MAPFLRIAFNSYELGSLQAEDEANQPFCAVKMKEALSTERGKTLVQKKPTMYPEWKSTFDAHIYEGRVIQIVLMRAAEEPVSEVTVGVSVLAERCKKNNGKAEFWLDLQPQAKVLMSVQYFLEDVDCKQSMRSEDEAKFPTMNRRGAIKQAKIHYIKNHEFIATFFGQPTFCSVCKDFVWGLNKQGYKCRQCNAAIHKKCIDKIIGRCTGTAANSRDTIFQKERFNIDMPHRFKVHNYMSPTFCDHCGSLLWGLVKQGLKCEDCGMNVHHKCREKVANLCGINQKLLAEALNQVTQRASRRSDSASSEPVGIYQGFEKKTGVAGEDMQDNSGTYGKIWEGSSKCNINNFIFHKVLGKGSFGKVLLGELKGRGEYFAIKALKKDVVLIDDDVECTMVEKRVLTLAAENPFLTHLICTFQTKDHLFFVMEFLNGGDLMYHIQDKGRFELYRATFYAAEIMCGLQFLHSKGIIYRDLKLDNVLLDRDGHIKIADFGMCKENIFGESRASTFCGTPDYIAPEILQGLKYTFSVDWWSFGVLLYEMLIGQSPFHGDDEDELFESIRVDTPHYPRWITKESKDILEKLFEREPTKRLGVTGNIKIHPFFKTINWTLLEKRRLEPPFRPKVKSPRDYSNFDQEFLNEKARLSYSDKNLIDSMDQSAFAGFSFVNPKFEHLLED

BRK, sequence (Q13882 whole entry): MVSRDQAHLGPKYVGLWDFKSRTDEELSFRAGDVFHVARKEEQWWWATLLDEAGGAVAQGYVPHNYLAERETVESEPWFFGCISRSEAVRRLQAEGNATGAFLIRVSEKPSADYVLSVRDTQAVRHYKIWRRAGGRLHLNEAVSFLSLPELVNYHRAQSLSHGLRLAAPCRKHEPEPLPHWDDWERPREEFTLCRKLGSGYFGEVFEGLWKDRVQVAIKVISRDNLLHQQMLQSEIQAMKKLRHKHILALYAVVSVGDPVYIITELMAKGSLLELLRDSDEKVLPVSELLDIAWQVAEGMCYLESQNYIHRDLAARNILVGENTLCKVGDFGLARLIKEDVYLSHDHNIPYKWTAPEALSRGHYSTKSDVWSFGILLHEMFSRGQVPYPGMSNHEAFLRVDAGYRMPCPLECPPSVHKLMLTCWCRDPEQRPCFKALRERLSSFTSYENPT
T1 sequence (P06239 whole entry): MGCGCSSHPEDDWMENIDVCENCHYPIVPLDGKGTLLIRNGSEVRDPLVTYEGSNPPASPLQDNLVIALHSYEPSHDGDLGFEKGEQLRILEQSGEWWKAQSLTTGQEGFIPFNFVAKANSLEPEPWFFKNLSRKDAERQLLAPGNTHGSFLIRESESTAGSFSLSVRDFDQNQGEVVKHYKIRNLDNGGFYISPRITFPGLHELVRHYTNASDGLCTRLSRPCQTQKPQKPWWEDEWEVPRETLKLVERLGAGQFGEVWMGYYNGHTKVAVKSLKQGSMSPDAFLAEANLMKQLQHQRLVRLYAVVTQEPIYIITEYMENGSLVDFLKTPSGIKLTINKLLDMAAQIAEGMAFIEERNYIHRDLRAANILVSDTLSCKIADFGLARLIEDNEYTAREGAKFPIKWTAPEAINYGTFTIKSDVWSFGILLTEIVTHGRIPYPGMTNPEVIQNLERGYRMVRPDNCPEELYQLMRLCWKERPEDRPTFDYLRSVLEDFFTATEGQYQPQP

Structure (SMILES)	Percentage inhibition of kinase enzyme activity (LCK) [%]	Percentage inhibition of kinase enzyme activity (BRK) [%]	Percentage inhibition of kinase enzyme activity (PKD2) [%]	Percentage inhibition of kinase enzyme activity (BRSK2) [%]	Percentage inhibition of kinase enzyme activity (HIPK4) [%]	Percentage inhibition of kinase enzyme activity (PKCδ) [%]	inhibition at 1 µM (BRK; read-out: Inhibition of BRK) [%]
C=CC(=O)N1CCC([C@@H]2CCNc3c(C(N)=O)c(-c4ccc(Oc5ccccc5)cc4)nn32)CC1 [zanubrutinib]	0.21	98.97					
CC#CC(=O)N1CCC[C@H]1c1nc(-c2ccc(C(=O)Nc3ccccn3)cc2)c2c(N)nccn12 [acalabrutinib]	6.84	51.05	-9.88	-10.15	-9.54	-8.64	
COc1ccc(F)cc1C(=O)NCc1ccc(-c2nn([C@@H](C)C(F)(F)F)c(N)c2C(N)=O)cc1 [pirtobrutinib]	30.64	89.81	-6.50	7.17	2.58	-3.98	> 75
O=C(c1ccc(Oc2ccccc2)cc1Cl)c1c[nH]c2ncnc(N[C@@H]3CC[C@@H](CO)OC3)c12 [nemtabrutinib]	70.86		7.65	15.84	13.77	6.96	
C=CC(=O)N1CCC[C@@H](n2nc(-c3ccc(Oc4ccccc4)cc3)c3c(N)ncnc32)C1 [ibrutinib]	100.25	102.78	-3.20	15.84	2.60	0.52	
